We go through one substance from patent publication US7579374B2, “Agent for improving bone metabolism” (The Nisshin OilliO Group, Ltd., priority 2001, dated 2009).

Data set [1] has as its system MC3T3-E1 cells. The data set can be described thus: Cell growth rate of osteoblasts in cell culture system. The format is cell-based, mice. To be noted: 10 μM; viable cells after 3 days; relative to control defined as 100. The text has this:
(§1) In such a system, the osteoblasts are proliferated and the activity of osteoblasts is increased. Therefore, any influence of a substance on the osteoblast-formation can be evaluated by determining, for instance, the rate of cell proliferation and the alkaline phosphatase (ALP) activity as an activity parameter.
(§2) In this Example, there were examined the effects of the chain isoprenoid fatty acid esters on the differentiation and calcium-accumulation of MC3T3-E1 cells or the osteoblasts derived from the skull-caps of mice. A culture medium was added to a 6-well plate in an amount of 2 mL/well, a desired number of MC3T3-E1 cells was inoculated on the medium and the cells were cultivated in a 10% fatal bovine serum-containing base culture liquid (α-MEM, available from Gibco Company) at 37° C. in an atmosphere of 5% CO2. On the day subsequent to the initiation of the cultivation, the culture medium was replaced with the fresh one and simultaneously a solution containing each test sample (the chain isoprenoid fatty acid esters obtained in Preparation Examples 1 to 9) was admixed with and added to the culture medium in an amount of 10 μM for the determination of the cell growth rate and 2.5 μM for the determination of the alkali phosphatase (ALP) activity and the cultivation was continued. The cells for the cell growth rate determination were recovered after 3 days from the initiation of the cultivation and the number of viable cells was counted to determine the cell growth rate. Regarding the other cells, the medium was replaced with fresh one on 5th day of cultivation, the test sample-containing solution was again added and the alkali phosphatase (ALP) activity was determined after the cultivation over one week.
The cell growth rate was calculated as a value relative to the cell growth rate observed for the control (free of any added test sample), which was defined to be 100.

Another data set in a line: Test for acute toxicity. The format is in vivo, rats. To be noted: oral. As for the experimental part:
The acute toxicity test was carried out according to the following method. Whister female rats (6-week-old, average body weight: 160 g) were previously kept for one week using a powdery blend feed having an AIN-93 composition, divided into three groups (each group containing 10 animals) in such a manner that the average body weight was uniform and the groups were specified as the orally administered group, the subcutaneously administered group and the intraperitoneally administered group, in the following tests. Geranyl-geranyl eicosapentaenoate prepared according to the procedures used in Example 5 was dissolved in cotton seed oil and administered to the foregoing animals through the corresponding administration routes in an amount of 2000 mg/kg (body weight). Subsequently, these animals were kept using a powdery blend feed having an AIN-93 composition to thus observe the prognostic conditions of the animals over 2 weeks after the administration and after 2 weeks, these animals were anatomized to thus inspect the animals for conditions of internal organs thereof.

Data set [2] relates to MC3T3-E1 cells. The data set can be described thus: Alkaline phosphatase (ALP) activity of osteoblasts in cell culture system. The format is cell-based, mice. To be noted: 2.5 μM.
Description: as §1, §2
In these experiments, there was used a kit for Alkaline Phospha K-Test WAKO (available from WAKO Pure Chemical Co., Ltd.). A sample used was a suspension of cells obtained by cultivating the same in the presence of each test substance added. A substrate (150 μL) was added to 10 μL of each sample followed by heating at 37° C. for 15 minutes, the addition of 150 μL of a color-developing liquid and determination of the absorbance at 570 nm. The ALP activity corresponding to each absorbance thus measured was determined using a calibration curve prepared in advance.

For a further data set, the system named is osteoclasts. The data set can be described thus: Bone absorption-inhibitory action in cell co-cultivation system (TRACP activity). The format is cell-based, mice. To be noted: 10 μM test substance. The text has this: The cell co-culture system used herein means a system in which osteoblasts and hematopoietic cells are subjected to co-culture in the presence of a factor for promoting the formation of osteoclasts and which thus easily permits the analysis of the differentiation process of the osteoclasts (Endocrinology, 1988, 123: 2600-2602). In such a system, osteoclasts are formed and therefore, the degree of osteoclast-formation can be evaluated by the determination of a tartaric acid-resistant acid phosphatase (TRACP) activity in the cell layer as the parameter indicative of the osteoclast.
The test for the confirmation of the bone absorption-inhibitory action of the isoprenoid ester was carried out according to the method disclosed in the literature (Endocrinology, 1988, 123: 2600). The method will be outlined below:
Stroma cells collected from the skull-caps of two-week-old mice according to the method disclosed in the literature (Endocrinology, 1988, 123: 2600) were dispersed in a 10% fetal bovine serum-containing culture base liquid (α-MEM; available from Gibco Company) to a cell density of 5×10^4 cells/mL.
Spleen cells collected from the spleen of 6-week-old ddy male mice according to the method disclosed in the literature (Proc. Natl. Acad. Sci. USA, 1983, 80: 5583) were dispersed in a 10% fetal bovine serum-containing culture base liquid (α-MEM; available from Gibco Company) to a cell density of 5×10^5 cells/mL.
The co-cultivation was carried out in a 5% CO2-containing atmosphere at a temperature of 37° C. using a 10% FBS (fetal bovine serum)-containing culture base liquid (α-MEM; available from Gibco Company). Osteoblast cells were inoculated on a 24-well petri dish at a cell density of 5×10^4 cells/mL/well, spleen cells were then inoculated thereon at a cell density of 5×10^5 cells/mL/well after one day and a solution of a test substance, which had been dissolved in DMSO in a concentration of 10^-2M, was then added to each well in such a manner that the concentration of the test substance was equal to 10 μM. These cells were cultivated in the presence of 10 nM Calcitriol and 100 nM Dexamethasone over 2 weeks while defining the day on which the spleen cells were inoculated as 0th day. In this respect, the culture medium was replaced with fresh one twice a week. After two weeks, the activity of the tartrate-resistant acid phosphatase (hereunder referred to as “TRACP”) in the cell layer was determined, which served as a parameter indicating the number of osteoclasts in the layer.
In the determination of the TRACP activity, there was used a kit of acid phosphatase KII-WAKO (available from WAKO Pure Chemical Co., Ltd.). The culture medium was removed from the Petri dish, 500 μL each of a substrate was added to each well, the resulting cell suspension was heated at 37° C. for 15 minutes, followed by the addition of 500 μL each of a color developing liquid and the determination of the absorbance at a wavelength of 570 nm. The TRACP activity corresponding to each absorbance thus measured was determined using a calibration curve prepared in advance.

For the substance Geranyl-Geranyl Eicosapentaenoate, the “Cell Growth Rate” value with MC3T3-E1 cells [1] turned out to be 107.8%. The “Anatomical findings of the internal organs” value in “Test for acute toxicity” (2000 mg/kg, subcutaneous, intraperitoneal, after 2 weeks) is reported as “normal”. The Mortality entry in the data set “Test for acute toxicity” (2000 mg/kg, subcutaneous, intraperitoneal, after 2 weeks from the administration) was “any animal was not killed”. For the same substance, the LD50 value result in “Test for acute toxicity” (female rats, subcutaneous and intraperitoneal groups, single 2000 mg/kg in cotton seed oil, 2 weeks observation) is “higher than 2000 mg/kg (body weight)”. Further, the “ALP Act.” value in the data set on MC3T3-E1 cells [2] (cultivation over one week, control 71.6 ± 4.6) is recorded as 123.5 ± 7.3 KA-U/well. In addition, the “Judged Efficacy (ALP, t-test relative to the control)” value in the data set on MC3T3-E1 cells [2] (one week) is on record as “⊚ (The test substance shows a considerable inhibitory effect (p < 0.01))”. In addition, the “Judged Efficacy (TRACP, t-test relative to the control)” value with osteoclasts (2 weeks) was “⊚ (The test substance shows a considerable inhibitory effect (p < 0.01))”. In addition, the “TRACP Act.” value in the data set with osteoclasts (co-culture 2 weeks with 10 nM Calcitriol and 100 nM Dexamethasone, control 102.8 ± 12.6) is reported as 9.7 ± 1.4 KA-U/well.
